We go through two sequences from US20160340656A1, “PEPTIDES DERIVED FROM GSE 24.2 FOR TREATING DISEASES CAUSED BY OXIDATIVE STRESS AND DAMAGE TO DNA” (CONSEJO SUPERIOR DE INVESTIGACIONES CIENTÍFICAS (CSIC), priority 2013, published 2016).

The subject of one assay is IL6. The assay is described as follows: Expression of proinflammatory cytokine IL6 in AT719-P cells. The note with it: relative to β-actin. The assay is classed as cell-based, human. How it is done:
FIG. 12. Levels of expression of proinflammatory cytokines in ataxia telangiectasia cells after expressing peptides GSE24.2 and GSE4. AT719-P AT cells were infected with a lentiviral vector expressing GSE24.2, GSE4 or a GFP empty vector and three weeks later the RNA was extracted and after obtaining the corresponding cDNA, the levels of expression of the proinflammatory cytokines IL6 and IL8 were determined. AT736C cells were used as a control. The levels of expression of the gene β-actin were measured as control of expression. The results are expressed as the relative increase in the number of times of expression of each of the genes compared to β-actin, considering the levels of expression of AT736C cells as 1.
As the peptide denominated GSE4 was smaller than the peptides with ability to repair telomerase activity, we studied if it had the same activity as peptide GSE24.2 for attenuating oxidative stress, expression of proinflammatory cytokines and repairing the senescence in ataxia telangiectasia cells. […] Finally, given that the increase in expression of the interleukins IL6 and IL8 are associated with a secretory phenotype linked to senescence in ataxia telangiectasia, we evaluated the ability of both peptides GSE24.2 and GSE4 to reduce senescence by evaluating senescence-associated β-galactosidase activity (SA-beta-Gal) (FIG. 13).

Assay [1] has as its system telomerase activity in VA13 cells. Put plainly: Telomerase activity (TRAP assay) in VA13 cells after peptide transfection. Format: cell-based. The note with it: 8 μg peptide. How it is done:
FIG. 10. Determination of telomerase activity in VA13 cells after transfection of the peptides GSE4 and GSE5. In order to determine the effect of expression of peptides GSE4 and GSE5, VA13 cells were transfected through lipofection and 24 hours later a TRAP assay was performed for telomerase activity.
The other way of quantifying the activity of peptide GSE4 was to evaluate its ability to increase telomerase activity in VA13 cells. To do this, these cells were transfected with 8 μg of the two peptides GSE4 and GSE5. […], the cells were processed to test the telomerase activity by the TRAP method.

The test system of the next assay is F9A353V cells. Put plainly: Repair of damage to DNA: Western blot of histone H2AX (Ser139) in F9A353V cells transfected with synthetic peptides. Format: cell-based. How it is done: FIG. 6. Western blot of F9 and F9A353V cells after 24 hours of transfection with chemically synthesized peptides derived from GSE24.2. The peptides indicated on each line of gel were transfected (15 μg of each peptide) on a 30 mm plate. After separating the protein extracts on polyacrylamide gels and transferring them to a nitrocellulose membrane, the membrane was hybridised with an antibody against histone H2AX (Ser139) and then with an antibody against α-tubulin as a loading control.
FIG. 7. Quantification of Western blot of FIG. 6. The signal obtained with histone H2AX (Ser139) was corrected with the signal of α-tubulin considering the signal obtained with the F9 cells transfected with beta-galactosidase (as control) as 1, using the NIH-Image program.
FIG. 8. Western blot of F9 and F9A353V cells after 24 of transfection with the GSE4 peptide at increasing concentrations. […]
FIG. 9. Quantification of the Western blot of FIG. 8. […]
In order to optimise the operating conditions of peptide GSE4, different amounts of peptide GSE4 were transfected into F9A353V cells and the amount of damage to DNA was determined using a specific antibody as was performed in FIG. 6 (FIG. 8). After quantification of the Western blot (FIG. 9), maximum inhibition of damage to DNA was obtained by transfecting 8 μg of peptide GSE4.
In general terms: A western blot detects proteins with antibodies after separation by electrophoresis.

Assay [2] has as its system AT3487 cells from patients with ataxia telangiectasia. The assay is described as follows: Damage to DNA in AT cells: phosphorylated histone H2AX (Ser139) foci after lentiviral expression of GSE24.2. The assay is classed as cell-based, human. How it is done:
FIG. 1. Determination of damage to DNA in AT cells: AT3784 AT cells were infected with a lentiviral vector expressing GSE24.2 or a GFP empty vector and were fixed 24 hours later to be processed and hybridised with an antibody against phosphorylated histone H2AX (Ser139). Control C-1787 cells were used as the negative control. Next they were hybridised with a fluorescein-labelled antibody and were stained with DAPI to locate the nuclei.
To perform this test, cell lines from patients with ataxia telangiectasia (AT, from the Coriell repository) with a mutation in the gene ATM and denominated AT3487 were used. Cell line C-1787 was used as the control cell line. The cells were infected with the bicistronic lentiviral vector pCMV-GFP-GSE24.2. After 48 hours of infection the cells were fixed with formaldehyde and then permeabilized by treating them with Triton X-100. The damage to DNA was estimated by studying the signal after hybridisation of the cells with an antibody against histone H2AX Ser139 and subsequent hybridisation with an antibody bound to fluorescein. The number of foci with stain for histone H2AX/nucleus was determined by confocal microscopy in a total of 200 cells and the data represented as a percentage of cells with a specific number of foci.

[3] abbreviates: 200 cells, lentiviral expression of GSE24.2.

“Also recorded” adds a separate entry of the source.

Take GFINLDKPSNP [GSE4]: the “reduction of levels of expression of IL6” value with IL6 is on record as 80%. Further, the “reactivation of telomerase activity” value in assay [1] was “much higher activity in reactivating telomerase activity”. For the same sequence, the “amount of peptide transfected giving maximum inhibition of damage to DNA” value in the assay with F9A353V cells (increasing amounts of peptide) was 8 µg. For the same sequence, the “repair of damage to DNA (phosphorylation of histone H2AX)” value in the assay with F9A353V cells (peptides lipofected with Proteojuice, 24 hours) was “substantially improved the activity of the full domain; also recorded: smallest sized peptide able to repair the damage to DNA”.
On to “GFINLDKPSNPSSHEVVAWIRRILRVEKTGHSGTLDPKVTGCLIVCIERATRLVK (GSE24.2; listed as Homo sapiens) [55-amino-acid peptide corresponding to the protein dyskerin; known from WO2007/090911]”, for which the “correction of overall damage to DNA” value in assay [2] is 40%. Moreover, in assay [2] (setting [3]), the “AT cells in which levels of damage to DNA are reduced” value was determined as 25% and the “AT cells in which overall damage to DNA is fully corrected” value amounted to 20%.
